Results: EP0534995B1, “INCLUSION COMPOUNDS OF NIMESULIDE WITH CYCLODEXTRINS” (BOEHRINGER INGELHEIM ITALIA S.p.A., priority 1990, dated 1991)

Columns and labels:
in vivo = conditions: male, Beagle, dog, plasma, po, 10 mg/kg
Description: (§1) Plasma kinetics were carried out in dog after oral administration of equivalent dosages of nimesulide and inclusion compound nimesulide -β-cyclodextrin according to a crossover scheme. Four male Beagle of body weight between 12.8 and 13.9 kg, fasted for at least 17 hours, were orally administered the following preparations: • A) nimesulide at the dose of 10 mg/kg • B) inclusion compound nimesulide -β-cyclodextrin (molar ratio 1 : 1) at the dose of 46.84 mg/Kg, corresponding to 10 mg/kg of nimesulide.
(§2) The preparations were administered in gelatine capsule after a "wash-out" period of 10 days.
(§3) The blood samples from dogs were collected in heparinized tubes after 1, 2, 3, 4, 5, 6, 8, 24, 28, 32, 48 and 52 hours from the administration of the two preparations. The relative plasma samples were obtained by centrifugation for 15 minutes at 3000 rpm.
(§4) The plasma levels of nimesulide were determined by HPLC with UV detection according to the following procedure: aliquots of plasma up to 2.5 ml were adjusted to 3.5 ml with distilled water and acidified with 1.0 ml of N hydrochloric acid and poured on to a glass column (18 mm i.d. 220 mm of lenght) containing 15 ml of Extralat® Merck. After 15 minutes nimesulide was eluted with two aliquotes of 7.5 ml of dichloromethane containing 5% of methanol. The eluate was evaporated to dryness under reduced pressure and the residue was taken up with 200 µl of 2.5 µg/ml solution of butilhydroxyanisole as internal standard. A suitable amount was therefore injected into a column by using the following chromatographic conditions: • Column RPC₈, 5 µm, 250 x 3 mm i.d. Supelco; • Mobile phase : acetonitrile + water containing 80 mg/l of EDTA in the ratio V/V 37.5 and 62.5 respectively; • Flow rate : 1.0 ml/min. • λ of detection: 230 nm
(§5) The parameters of AUC. Cmax and Tmax were calculated by the plasma levels of nimesulide using a computer fitting system with TOP FIT package and the results were statistically evaluated by the ANOVA TWO WAYS procedure.

[1] = dog, oral, equivalent to 10 mg/kg nimesulide; mean of 4 dogs; computer fitting (TOP FIT) of plasma levels
Description: as §1, §2, §3, §4, §5

AUC(0-t) (in vivo): 165 µg·h/mL
Cmax (in vivo): 12100 ng/mL
TCmax [1]: 4.4 h
SMILES: CS(=O)(=O)Nc1ccc([N+](=O)[O-])cc1Oc1ccccc1 [Preparation A, 4-nitro-2-phenoxy-methansulfonanilide]
